Source: patent US9302999B2, “Substituted triazoles as herbicides” (E. I. DU PONT DE NEMOURS AND COMPANY, priority 2012, dated 2016)

Legend:
Assay type in all cases: in vivo
[1] = system: barnyardgrass (Echinochloa crus-galli); test: Test A pre-/postemergence: barnyardgrass; settings: for Barnyardgrass plant response rating: Postemergence; for Plant response rating, Barnyardgrass: Preemergence
Text: (§1) Seeds of barnyardgrass (Echinochloa crus-galli), crabgrass, large (large crabgrass, Digitaria sanguinalis), foxtail, giant (giant foxtail, Setaria faberii), morningglory (Ipomoea spp.), pigweed (Amaranthus retroflexus), velvetleaf (Abutilon theophrasti), wheat (Triticum aestivum), and corn (Zea mays) were planted into a blend of loam soil and sand and treated preemergence with a directed soil spray using test chemicals formulated in a non-phytotoxic solvent mixture which included a surfactant. At the same time these species were also treated with postemergence applications of test chemicals formulated in the same manner.
(§2) Plants ranged in height from two to ten cm and were in the one- to two-leaf stage for the postemergence treatment. Treated plants and untreated controls were maintained in a greenhouse for approximately ten days, after which time all treated plants were compared to untreated controls and visually evaluated for injury. Plant response ratings, summarized in Table A, are based on a 0 to 100 scale where 0 is no effect and 100 is complete control. A dash (-) response means no test result.

[2] = system: crabgrass, large (large crabgrass, Digitaria sanguinalis); test: Test A pre-/postemergence: crabgrass, large; settings: for Crabgrass, Large plant response rating: Postemergence; for Plant response rating, Crabgrass, Large: Preemergence
Text: as §1, §2

[3] = system: foxtail, giant (giant foxtail, Setaria faberii); test: Test A pre-/postemergence: foxtail, giant; settings: for Foxtail, Giant plant response rating: Postemergence; for Plant response rating, Foxtail, Giant: Preemergence
Text: as §1, §2

[4] = system: morningglory (Ipomoea spp.); test: Test A pre-/postemergence: morningglory; settings: for Morningglory plant response rating: Postemergence; for Plant response rating, Morningglory: Preemergence
Text: as §1, §2

[5] = system: pigweed (Amaranthus retroflexus); test: Test A pre-/postemergence: pigweed; settings: for Pigweed plant response rating: Postemergence; for Plant response rating, Pigweed: Preemergence
Text: as §1, §2

[6] = system: velvetleaf (Abutilon theophrasti); test: Test A pre-/postemergence: velvetleaf; settings: for Velvetleaf plant response rating: Postemergence; for Plant response rating, Velvetleaf: Preemergence
Text: as §1, §2

[7] = system: wheat (Triticum aestivum); test: Test A pre-/postemergence: wheat; settings: for Wheat plant response rating: Postemergence; for Plant response rating, Wheat: Preemergence
Text: as §1, §2

corn (Zea mays) = test: Test A pre-/postemergence: corn; settings: for Corn plant response rating: Postemergence; for Plant response rating, Corn: Preemergence
Text: as §1, §2

[8] = 125 g ai/ha, 0 to 100 scale, 0 is no effect, 100 is complete control
[9] = 500 g ai/ha, visual rating on 0 to 100 scale (0 no effect, 100 complete control), approximately ten days
[10] = 125 g ai/ha, 0 to 100 scale (0 no effect, 100 complete control)
[11] = 500 g ai/ha, 0 to 100 scale, 0 is no effect, 100 is complete control
[12] = 125 g ai/ha, 0 to 100 scale where 0 is no effect and 100 is complete control
[13] = 500 g ai/ha, 0 to 100 scale (0 no effect, 100 complete control)

SMILES	Barnyardgrass plant response rating [1, 8]	Barnyardgrass plant response rating [1, 9]	Crabgrass, Large plant response rating [2, 8]	Crabgrass, Large plant response rating [2, 9]	Foxtail, Giant plant response rating [3, 8]	Foxtail, Giant plant response rating [3, 9]	Plant response rating, Foxtail, Giant [3, 12]	Morningglory plant response rating [4, 8]	Morningglory plant response rating [4, 9]	Plant response rating, Morningglory [4, 12]	Pigweed plant response rating [5, 8]	Pigweed plant response rating [5, 9]	Plant response rating, Pigweed [5, 12]	Velvetleaf plant response rating [6, 8]	Velvetleaf plant response rating [6, 9]	Plant response rating, Velvetleaf [6, 12]	Wheat plant response rating [7, 8]	Wheat plant response rating [7, 9]	Plant response rating, Wheat [7, 12]	Corn plant response rating (corn (Zea mays); [8])	other results
Cc1nn(-c2ccc(F)cc2)nc1Oc1ccc(Cl)c(C(F)(F)F)c1 [Compound 99]	10	30	30	70	20	80	10	60	80	0	70	100	20	10	60	0	0	20	0	20	Plant response rating, Barnyardgrass [1, 10]: 0; Plant response rating, Barnyardgrass [1, 11]: 10; Plant response rating, Crabgrass, Large [2, 10]: 30; Plant response rating, Crabgrass, Large [2, 11]: 60; Plant response rating, Foxtail, Giant [3, 11]: 80; Plant response rating, Morningglory [4, 11]: 0; Plant response rating, Pigweed [5, 11]: 60; Plant response rating, Velvetleaf [6, 11]: 20; Plant response rating, Wheat [7, 11]: 0; Corn plant response rating (corn (Zea mays); [9]): 20; Plant response rating, Corn (corn (Zea mays); [10]): 0; Plant response rating, Corn (corn (Zea mays); [11]): 0
Cc1nn(-c2ccc(F)cc2)nc1Oc1cccc(OC(F)(F)F)c1 [Compound 100]	10	30	60	80	50	70	20	90	90	0	80	90	10	30	70	0	0	20	0	10	Plant response rating, Barnyardgrass [1, 10]: 0; Plant response rating, Barnyardgrass [1, 11]: 20; Plant response rating, Crabgrass, Large [2, 10]: 10; Plant response rating, Crabgrass, Large [2, 11]: 90; Plant response rating, Foxtail, Giant [3, 11]: 70; Plant response rating, Morningglory [4, 11]: 0; Plant response rating, Pigweed [5, 11]: 90; Plant response rating, Velvetleaf [6, 11]: 0; Plant response rating, Wheat [7, 11]: 0; Corn plant response rating (corn (Zea mays); [9]): 20; Plant response rating, Corn (corn (Zea mays); [10]): 0; Plant response rating, Corn (corn (Zea mays); [11]): 0
Cc1nn(-c2ccc(C(F)(F)F)cc2)nc1Oc1ccc(Cl)c(C(F)(F)F)c1 [Compound 103]	0	0	0	30	0	20	0	0	0	0	50	70	10	0	10	0	0	0	0	0	Plant response rating, Barnyardgrass [1, 10]: 0; Plant response rating, Barnyardgrass [1, 11]: 0; Plant response rating, Crabgrass, Large [2, 10]: 0; Plant response rating, Crabgrass, Large [2, 11]: 10; Plant response rating, Foxtail, Giant [3, 11]: 0; Plant response rating, Morningglory [4, 11]: 0; Plant response rating, Pigweed [5, 11]: 30; Plant response rating, Velvetleaf [6, 11]: 0; Plant response rating, Wheat [7, 11]: 0; Corn plant response rating (corn (Zea mays); [9]): 0; Plant response rating, Corn (corn (Zea mays); [10]): 0; Plant response rating, Corn (corn (Zea mays); [11]): 0
OCc1nn(-c2ccc(C(F)(F)F)cc2)nc1Oc1cccc(C(F)(F)F)c1 [Compound 110]	20	30	50	70	20	30	0	90	100	10	70	100	0	30	60	0	10	30	0	20	Plant response rating, Barnyardgrass [1, 10]: 0; Plant response rating, Barnyardgrass [1, 11]: 0; Plant response rating, Crabgrass, Large [2, 10]: 0; Plant response rating, Crabgrass, Large [2, 11]: 20; Plant response rating, Foxtail, Giant [3, 11]: 20; Plant response rating, Morningglory [4, 11]: 20; Plant response rating, Pigweed [5, 11]: 50; Plant response rating, Velvetleaf [6, 11]: 10; Plant response rating, Wheat [7, 11]: 0; Corn plant response rating (corn (Zea mays); [9]): 30; Plant response rating, Corn (corn (Zea mays); [10]): 0; Plant response rating, Corn (corn (Zea mays); [11]): 0
Cc1nn(-c2ccc(F)cc2)nc1Cn1cnc(C(F)(F)F)c1 [Compound 112]	0	30	50	90	20	80	60	60	100	0	90	100	90	50	60	0	10	30	0	20	Plant response rating, Barnyardgrass [1, 12]: 0; Plant response rating, Barnyardgrass [1, 13]: 40; Plant response rating, Crabgrass, Large [2, 12]: 80; Plant response rating, Crabgrass, Large [2, 13]: 100; Plant response rating, Foxtail, Giant [3, 13]: 90; Plant response rating, Morningglory [4, 13]: 20; Plant response rating, Pigweed [5, 13]: 100; Plant response rating, Velvetleaf [6, 13]: 20; Plant response rating, Wheat [7, 13]: 0; Corn plant response rating (corn (Zea mays); [9]): 20; Plant response rating, Corn (corn (Zea mays); [12]): 0; Plant response rating, Corn (corn (Zea mays); [13]): 0
